Counter-ions that a name gives are not always drawn.
How the values were obtained:
[1] = tested on: renal hypertensive rats; experiment: blood pressure lowering in renal hypertensive rats (2-kidney, 1-clip Goldblatt model); assay type: in vivo; details: renal hypertensive rat
Description: Finally, the compounds of Formula I were tested in vivo for blood pressure lowering effects in renal hypertensive rats (2-kidney, 1-clip Goldblatt model) according to the method described by S. Sen, et al, in Hypertension 1979;1:427-34 and in Clin. Soc. 1979;57:53-62.
Illustrative of the in vivo antihypertensive activity for compounds of Formula I or Ia is the data for Example 1a. This compound lowers blood pressure by ≥50 mm Hg and is efficacious for more than 24 hours with a single oral dose of 100 mg/kg in the renal hypertensive rat. Furthermore Example 73 lowers blood pressure by ≥30 mm Hg and is efficacious for more than 24 hours with a single oral dose of 30 mg/kg in the renal hypertensive rat.

[2] = molecular target: T1, AT1 receptor (Rattus norvegicus, UniProt P25095); experiment: [^3 H]angiotensin II binding to rat liver membranes (AT1 test); details: inhibition of [^3 H]angiotensin II binding
T1 construct: rat liver membranes; from tissue; host or cells: rat liver membranes
T1 sequence (P25095 1-359): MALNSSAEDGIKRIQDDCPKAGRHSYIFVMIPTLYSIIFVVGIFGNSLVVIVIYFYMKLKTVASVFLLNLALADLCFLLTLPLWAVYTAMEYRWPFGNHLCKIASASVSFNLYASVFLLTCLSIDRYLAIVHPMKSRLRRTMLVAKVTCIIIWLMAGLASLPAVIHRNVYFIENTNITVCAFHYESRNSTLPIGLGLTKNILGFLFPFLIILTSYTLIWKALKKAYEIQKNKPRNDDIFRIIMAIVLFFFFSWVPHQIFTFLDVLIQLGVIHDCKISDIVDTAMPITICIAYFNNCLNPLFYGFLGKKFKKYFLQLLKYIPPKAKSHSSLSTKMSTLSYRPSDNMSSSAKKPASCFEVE
In short: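 Inhibition of [^3 H]angiotensin II binding to rat liver membranes, run by the Dudley et al. 1990 method.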

## CCCCc1ncc(/C=C2\C(=O)NC(=O)N2CCCC)n1Cc1ccc(C(=O)O)cc1 [Example 1a, (E)-4-[[2-Butyl-5-[(3-butyl-2,5-dioxo-4-imidazolidinylidene)methyl]-1H-imidazol-1-yl]methyl]benzoic acid]
[1]; single oral dose of 100 mg/kg
  lowers blood pressure by: ≥ 50 mm Hg

## CCCCc1ncc(/C=C2/C(=O)N(CCCC)C(=O)N2CCCC)n1Cc1ccc(C(=O)O)cc1 [Example 73, Z-4-[[2-butyl-5-[(1,3-dibutyl-2,5-dioxo-4-imidazolidinylidene)methyl]-1H-imidazol-1-yl]methyl]benzoic acid]
[2]
  IC50: 1.3 nM
[1]; single oral dose of 30 mg/kg
  efficacious for (duration): more than 24 hours
  lowers blood pressure by: ≥ 30 mm Hg

## CCCCc1ncc(/C=C2/C(=O)N(CCCC)C(=O)N2CC(=O)c2cccs2)n1Cc1ccc(C(=O)OC)cc1 [Example 103, Methyl Z-4-[[2-butyl-5-[[1-butyl-2,5-dioxo-3-[2-oxo-2-(2-thienyl)ethyl]-4-imidazolidinylidene]methyl]-1H-imidazol-1-yl]methyl]benzoate monochloride]
[2]
  IC50: 120 nM

## CCCCc1ncc(/C=C2/C(=O)N(CCCC)C(=O)N2CC(=O)c2ccccc2)n1Cc1ccc(C(=O)OC)cc1 [Example 104, Methyl Z-4-[[2-butyl-5-[[1-butyl-2,5-dioxo-3-(2-oxo-2-phenylethyl)-4-imidazolidinylidene]methyl]-1H-imidazol-1-yl]methyl]benzoate monohydrochloride]
[2]
  IC50: > 1000 nM

## CCCCc1ncc(/C=C2/C(=O)N(Cc3cccs3)C(=O)N2Cc2cccs2)n1Cc1ccc(C(=O)O)cc1 [Example 105, Z-4-[[2-Butyl-5-[[2,5-dioxo-1,3-bis(2-thienylmethyl)-4-imidazolidinylidene]methyl]-1H-imidazol-1-yl]methyl]benzoic acid]
[2]
  IC50: 1.47 nM

## CCCCc1ncc(/C=C2/C(=O)N(CCCC)C(=O)N2Cc2ccno2)n1Cc1ccc(C(=O)OC)cc1 [Example 106, Methyl Z-4-[[2-butyl-5-[[1-butyl-3-(5-isoxazolyl-methyl)-2,5-dioxo-4-imidazolidinylidene]methyl]-1H-imidazol-1-yl]methyl]benzoate monohydrochloride]
[2]
  IC50: 10.1 nM

## CCCCc1ncc(/C=C2\NC(=O)N(CCCC(F)(F)F)C2=O)n1Cc1ccc(C(=O)OC)cc1 [Example 107, Methyl Z-4-[[2-butyl-5-[[2,5-dioxo-4,4,4,-(trifluorobutyl)-4-imidazolidinylidene]methyl]-1H-imidazol-1-yl]methyl]benzoate]
[2]
  IC50: 1450 nM

## CCCCc1ncc(/C=C2/C(=O)N(CCCC)C(=O)N2Cc2cc(C)on2)n1Cc1ccc(C(=O)OC)cc1 [Example 108, Methyl Z-4-[[2-butyl-5-[[1-butyl-3-[(5-methyl-3-isoxazolyl)methyl]-2,5-dioxo-4-imidazolidinylidene]methyl]-1H-imidazol-1-yl]methyl]benzoate]
[2]
  IC50: 8.47 nM

## CCCCc1ncc(/C=C2/C(=O)N(CC)C(=O)N2Cc2csc(C)n2)n1Cc1ccc(C(=O)OC)cc1 [Example 109, Methyl Z-4-[[2-butyl-5-[[1-ethyl-3-[(2-methyl-4-thiazolyl)methyl]-2,5-dioxo-4-imidazolidinylidene]methyl]-1H-imidazol-1-yl]methyl]benzoate dihydrochloride]
[2]
  IC50: 11.1 nM

## CCCCc1ncc(/C=C2/C(=O)N(CCCC)C(=O)N2Cc2csc(C)n2)n1Cc1ccc(C(=O)OC)cc1Cl [Example 110, Methyl Z-4-[[2-butyl-5-[[1-butyl-3-[(2-methyl-4-thiazolyl)methyl]-2,5-dioxo-4-imidazolidinylidene[methyl]-1H-imidazol-1-yl]methyl]-3chloro benzoatemonohydrochloride]
[2]
  IC50: 2.47 nM

## CCCCc1ncc(/C=C2/C(=O)N(CCCC(F)(F)F)C(=O)N2Cc2csc(C)n2)n1Cc1ccc(C(=O)OC)cc1 [Example 111, Methyl Z-4-[[2-Butyl-5-[[3-[(2-methyl-4-thiazoyl)methyl]-2,5-dioxo-1-(4,4,4-trifluorobutyl)-4-imidazolidinylidene]methyl]-1H-imidazol-1-yl]methyl]benzoate dihydrochloride]
[2]
  IC50: 70 nM

## CCCCc1ncc(/C=C2/C(=O)N(CCCC)C(=O)N2CCCC(F)(F)F)n1Cc1ccc(C(=O)OC)cc1 [Example 112, Methyl Z-4-[[2-butyl-5-[[1-butyl-2,5-dioxo-3-(4,4,4-trifluorobutyl)-4-imidazolidinylidene]methyl]-1H-imidazol-1-yl]methyl]benzoate dihydrochloride]
[2]
  IC50: 6.44 nM

## CCCCc1ncc(/C=C2/C(=O)N(CCCC(F)(F)F)C(=O)N2CCCC(F)(F)F)n1Cc1ccc(C(=O)OC)cc1 [Example 113, dihydrochloride]
[2]
  IC50: 18.3 nM
